Molecular target: T1, vanilloid receptor (Rattus norvegicus, UniProt O35433)
T1 construct: DRG nerve cells from the primary culture of 2 days were equilibrated; endogenous in cells; host or cells: primary culture of dorsal root ganglion neurons from neonatal SD rats
Assay: 45Ca influx test in cultured neonatal rat DRG neurons, inhibition of capsaicin response
Format: cell-based
Details: neonatal rat DRG neurons, capsaicin 0.5 μM, 45Ca influx; read-out: Antagonist Calcium Uptake Test (IC50)
Summary of the method: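 Neonatal SD rat DRG neurons, cultured 2 days with NGF (200 ng/ml) and Ara-C, were washed in HEPES (10 mM, pH 7.4)-buffered Ca/Mg-free HBSS. Test compound was added with capsaicin (final 0.5 μM) and 45Ca (10 μCi/ml) for 10 min at room temperature; 45Ca uptake counted by scintillation after SDS elution.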

T1 sequence (O35433 whole entry): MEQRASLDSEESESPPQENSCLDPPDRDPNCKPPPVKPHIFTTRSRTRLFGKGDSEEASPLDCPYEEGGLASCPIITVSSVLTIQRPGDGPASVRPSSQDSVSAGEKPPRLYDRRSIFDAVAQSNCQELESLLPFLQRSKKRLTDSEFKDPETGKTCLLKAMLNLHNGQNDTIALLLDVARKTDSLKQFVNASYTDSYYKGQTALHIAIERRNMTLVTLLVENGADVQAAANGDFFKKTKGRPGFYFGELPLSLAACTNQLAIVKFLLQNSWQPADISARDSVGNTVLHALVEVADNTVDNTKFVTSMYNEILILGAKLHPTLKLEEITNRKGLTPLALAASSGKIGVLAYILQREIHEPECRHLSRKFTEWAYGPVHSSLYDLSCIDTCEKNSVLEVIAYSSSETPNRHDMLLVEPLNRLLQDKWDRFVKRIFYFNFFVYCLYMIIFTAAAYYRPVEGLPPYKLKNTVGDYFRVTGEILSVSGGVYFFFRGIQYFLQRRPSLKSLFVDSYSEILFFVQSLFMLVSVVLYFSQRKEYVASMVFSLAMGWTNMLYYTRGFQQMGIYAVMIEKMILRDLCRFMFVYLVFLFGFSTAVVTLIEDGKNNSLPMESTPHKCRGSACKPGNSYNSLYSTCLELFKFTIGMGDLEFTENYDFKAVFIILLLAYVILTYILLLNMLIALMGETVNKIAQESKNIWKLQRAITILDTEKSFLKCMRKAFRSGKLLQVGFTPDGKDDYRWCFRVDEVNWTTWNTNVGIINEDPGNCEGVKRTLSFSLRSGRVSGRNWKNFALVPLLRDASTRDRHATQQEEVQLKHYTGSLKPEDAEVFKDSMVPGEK

Structure (SMILES) | IC50 [nM]
C#Cc1cc(CNC(=O)/C=C/c2ccc(C(F)(F)F)nc2N2CCCCC2)cc(F)c1NS(C)(=O)=O [Example 24, N-(3-Ethynyl-5-fluoro-4-methanesulfonylamino-benzyl)-3-(2-piperid-1-yl-6-trifluoromethyl-pyridinyl-3-yl)-acrylamide] | 340
C#Cc1cc(CNC(=O)/C=C/c2ccc(C(F)(F)F)nc2Oc2ccc(F)cc2)cc(F)c1NS(C)(=O)=O [Example 82, N-(3-Ethynyl-5-fluoro-4-methanesulfonylamino-benzyl)-3-[2-(4-fluoro-phenoxy)-6-trifluoromethyl-pyridin-3-yl]-acrylamide] | 600
CCCCOc1nc(C(F)(F)F)ccc1/C=C/C(=O)NCc1ccc(NS(C)(=O)=O)c(F)c1 [Example 63, 3-(2-Butoxy-6-trifluoromethyl-pyridin-3-yl)-N-(3-fluoro-4-methanesulfonylamino-benzyl)-acrylamide] | 560
CC(C)CCOc1nc(C(F)(F)F)ccc1/C=C/C(=O)NCc1cc(F)c(NS(C)(=O)=O)c(C#N)c1 [Example 118, N-(3-Cyano-5-fluoro-4-methanesulfonylamino-benzyl)-3-[2-(3-methyl-butoxy)-6-trifluoromethyl-pyridin-3-yl]-acrylamide] | 200
C#Cc1cc(CNC(=O)/C=C/c2ccc(C(F)(F)F)nc2-n2cccn2)cc(F)c1NS(C)(=O)=O [Example 80, N-(3-Ethynyl-5-fluoro-4-methanesulfonylamino-benzyl)-3-[2-pyrazol-1-yl-6-trifluoromethyl-pyridin-3-yl]-acrylamide] | 3100
C#Cc1cc(CNC(=O)/C=C/c2ccc(C(F)(F)F)nc2N(CC)CC)cc(F)c1NS(C)(=O)=O [Example 38, 3-(2-Diethylamino-6-trifluoromethyl-pyridin-3-yl)-N-(3-ethynyl-5-fluoro-4-methanesulfonylamino-benzyl)-acrylamide] | 220
C#Cc1cc(CNC(=O)/C=C/c2ccc(C(F)(F)F)nc2NC2CCCC2)cc(F)c1NS(C)(=O)=O [Example 73, 3-(2-Cyclopentylamino-6-trifluoromethyl-pyridin-3-yl)-N-(3-ethynyl-5-fluoro-4-methanesulfonylamino-benzyl)-acrylamide] | 150
CS(=O)(=O)Nc1ccc(CNC(=O)/C=C/c2ccc(C(F)(F)F)nc2CCc2ccccc2)cc1F [Example 141, N-(3-Fluoro-4-methanesulfonylamino-benzyl)-3-(2-phenethyl-6-trifluoromethyl-pyridin-3-yl)-acrylamide] | 180
CCOC(=O)C1CCCN(c2nc(C(F)(F)F)ccc2/C=C/C(=O)NCc2cc(F)c(NS(C)(=O)=O)c(C#N)c2)C1 (stereo not shown) [Example 115, N-(3-Cyano-5-fluoro-4-methansulfonylamino-benzyl)-3-[2-(3-ethoxycarbonyl-piperid-1-yl)-6-trifluoromethyl-pyridin-3-yl]-acrylamide] | 470
CS(=O)(=O)Nc1ccc(CNC(=O)/C=C/c2ccc(C(F)(F)F)nc2Oc2ccccc2)cc1F [Example 132, N-(3-Fluoro-4-methanesulfonylamino-benzyl)-3-(2-phenoxy-6-trifluoromethyl-pyridin-3-yl)-acrylamide] | > 3000
CCC(C)Cc1nc(C(F)(F)F)ccc1/C=C/C(=O)NCc1ccc(NS(C)(=O)=O)c(F)c1 (stereo not shown) [Example 151, N-(3-Fluoro-4-methanesulfonylamino-benzyl)-3-[2-(2-methyl-butyl)-6-trifluoromethyl-pyridin-3-yl]-acrylamide] | 150
CCC(C)Nc1nc(C(F)(F)F)ccc1/C=C/C(=O)NCc1cc(F)c(NS(C)(=O)=O)c(F)c1 (stereo not shown) [Example 129, 3-(2-sec-Butylamino-6-trifluoromethyl-pyridin-3-yl)-N-(3,5-difluoro-4-methanesulfonylamino-benzyl)-acrylamide] | 47
C#Cc1cc(CNC(=O)/C=C/c2ccc(C(F)(F)F)nc2CCCC)cc(F)c1NS(C)(=O)=O [Example 144, 3-(2-Butyl-6-trifluoromethyl-pyridin-3-yl)-N-(3-ethynyl-5-fluoro-4-methanesulfonylamino-benzyl)-acrylamide] | 33
CCCCc1nc(C(F)(F)F)ccc1/C=C/C(=O)NCc1ccc(NS(C)(=O)=O)c(F)c1 [Example 143, 3-(2-Butyl-6-trifluoromethyl-pyridin-3-yl)-N-(3-fluoro-4-methanesulfonylamino-benzyl)-acrylamide] | 200
C#Cc1cc(CNC(=O)/C=C/c2cnc(C(C)(C)C)cc2C(F)(F)F)cc(F)c1NS(C)(=O)=O [Example 18, 3-(6-tert-Butyl-4-trifluoromethyl-pyridin-3-yl)-N-(3-ethynyl-5-fluoro-4-methanesulfonylamino-benzyl)-acrylamide] | 130
CC(C)Cc1nc(C(F)(F)F)ccc1/C=C/C(=O)NCc1ccc(NS(C)(=O)=O)c(F)c1 [Example 147, N-(3-Fluoro-4-methanesulfonylamino-benzyl)-3-(2-isobutyl-6-trifluoromethyl-pyridin-3-yl)-acrylamide] | 220
CS(=O)(=O)Nc1ccc(CNC(=O)/C=C/c2ccc(N3CCCCC3)nc2)cc1F [Example 19, N-(3-Fluoro-4-methanesulfonylamino-benzyl)-3-(6-piperid-1-yl-pyridinyl-3-yl)-acrylamide] | > 10000
COc1cc(C(F)(F)F)c(/C=C/C(=O)NCc2ccc(NS(C)(=O)=O)c(F)c2)cn1 [Example 43, N-(3-Fluoro-4-methanesulfonylaminobenzyl)-3-(6-methoxy-4-trifluoromethylpyridin-3-yl)acrylamide] | 9200
C#Cc1cc(CNC(=O)/C=C/c2ccc(C(F)(F)F)nc2OC(C)CC)cc(F)c1NS(C)(=O)=O (stereo not shown) [Example 77, 3-(2-sec-Butoxy-6-trifluoromethyl-pyridin-3-yl)-N-(3-ethynyl-5-fluoro-4-methanesulfonylamino-benzyl)-acrylamide] | 340

Now from value to molecule:

IC50 [nM] | Structure (SMILES)
180 | C#Cc1cc(CNC(=O)/C=C/c2ccc(C(F)(F)F)nc2SCC)cc(F)c1NS(C)(=O)=O [Example 171, 3-(2-Ethylthio-6-trifluoromethyl-pyridin-3-yl)-N-(3-ethynyl-5-fluoro-4-methanesulfonylamino-benzyl)-acrylamide]
2000 | CCCS(=O)(=O)c1nc(C(F)(F)F)ccc1C=CC(=O)NCc1ccc(NS(C)(=O)=O)c(C)c1 [Example 216, N-(4-Methanesulfonylamino-3-methyl-benzyl)-3-[2-(propane-1-sulfonyl)-6-trifluoromethyl-pyridin-3-yl]-acrylamide]
400 | CS(=O)(=O)Nc1c(F)cc(CNC(=O)/C=C/c2ccc(C(F)(F)F)nc2CCc2ccccc2)cc1C(F)(F)F [Example 189, N-(3-Fluoro-4-methanesulfonylamino-5-trifluoromethyl-benzyl)-3-(2-phenethyl-6-trifluoromethyl-pyridin-3-yl)-acrylamide]
780 | CS(=O)(=O)Nc1ccc(CNC(=O)/C=C/c2ccc(C(F)(F)F)nc2-c2cccc(F)c2)cc1F [Example 179, N-(3-Fluoro-4-methanesulfonylamino-benzyl)-3-[2-(3-fluoro-phenyl)-6-trifluoromethyl-pyridin-3-yl]-acrylamide]
110 | COCCNc1nc(C(F)(F)F)ccc1/C=C/C(=O)N[C@H](C)c1ccc(NS(C)(=O)=O)c(F)c1 [Example 212, (R)—N-[1-(3-Fluoro-4-methanesulfonylamino-phenyl)-ethyl]-3-[2-(2-methoxy-ethylamino)-6-trifluoromethyl-pyridin-3-yl]-acrylamide]
420 | CS(=O)(=O)Nc1c(F)cc(CNC(=O)/C=C/c2ccc(C(F)(F)F)nc2-c2cccc(F)c2)cc1F [Example 201, N-(4-Methanesulfonylamino-3,5-difluoro-benzyl)-3-[2-(3-fluoro-phenyl)-6-trifluoromethyl-pyridin-3-yl]-acrylamide]
46 | CC(C)Nc1nc(C(F)(F)F)ccc1/C=C/C(=O)N[C@H](C)c1ccc(NS(C)(=O)=O)c(F)c1 [Example 218, (R)—N-[1-(3-Fluoro-4-methanesulfonylamino-phenyl)-ethyl]-3-(2-isopropylamino-6-trifluoromethyl-pyridin-3-yl)-acrylamide]
3300 | CS(=O)(=O)Nc1c(F)cc(CNC(=O)/C=C/c2ccc(C(F)(F)F)nc2N2CCOCC2)cc1C(F)(F)F [Examples 22]
1300 | CC(C)(C)c1ccc(/C=C/C(=O)NCc2ccc(NS(C)(=O)=O)c(Cl)c2)cn1 [Examples 2]
1400 | CCCCc1nc(C(F)(F)F)ccc1C#CC(=O)NCc1ccc(NS(C)(=O)=O)cc1 [Example 266, 3-(2-Butyl-6-trifluoromethyl-pyridin-3-yl)-propynoic acid 4-methanesulfonylamino-benzylamide]
67 | C[C@@H](NC(=O)/C=C/c1ccc(C(F)(F)F)nc1NCc1ccccc1)c1ccc(NS(C)(=O)=O)c(F)c1 [Example 195, (R)-3-(2-Benzylamino-6-trifluoromethyl-pyridin-3-yl)-N-[1-(3-fluoro-4-methanesulfonylamino-phenyl)-ethyl]-acrylamide]
1300 | CCC/C(=C/C(=O)NCc1ccc(NS(C)(=O)=O)c(Cl)c1)c1ccc(C(F)(F)F)nc1CCC [Example 271]
330 | CCCc1nc(C(F)(F)F)ccc1/C=C/C(=O)NCc1ccc(NS(C)(=O)=O)cc1 [Example 252, N-(4-Methanesulfonylamino-benzyl)-3-(2-propyl-6-trifluoromethyl-pyridin-3-yl)-acrylamide]
450 | C=CS(=O)(=O)Nc1ccc(CNC(=O)/C=C/c2ccc(C(F)(F)F)nc2NC(C)C)cc1 [Example 267, N-(4-Ethenesulfonylamino-benzyl)-3-(2-isopropylamino-6-trifluoromethyl-pyridin-3-yl)-acrylamide]
4700 | CCCCc1nc(C(F)(F)F)ccc1C#CC(=O)NCc1ccc(NS(C)(=O)=O)cc1Cl [Example 263, 3-(2-Butyl-6-trifluoromethyl-pyridin-3-yl)-propynoic acid 2-chloro-4-methanesulfonylamino-benzylamide]
